The term IC50 denotes the concentration needed to halve the response being measured. As a reminder, the inhibition is the drop in the measured response relative to a control, in per cent.

This assay concerns the target T1, urease enzyme (Canavalia ensiformis, UniProt P07374).
T1 construct: purchased CAS Number: 9002-13-5
The experiment in a line: Urease inhibition assay (modified Berthelot assay). The assay is classed as biochemical, Canavalia ensiformis (Jack bean). Conditions: for inhibition at 100 µM: read-out: %Age Urease Inhibition Activity (0.1 mM). The protocol: Chalcones are important medicinal compounds to combat several pathological conditions associated with ureolytic enzymes (urease). […] Urease inhibition assay was performed according to the reported protocol by Pervez et al..
All reagents and solvents were obtained from the supplier or recrystallized or redistilled as necessary. Thin-layer chromatography was performed using aluminum sheets (Merck) coated with silica gel 60 F254. Urease enzyme was purchased from Canavalia ensiformis (Jack bean), CAS Number: 9002-13-5. IR spectra were recorded using an IR PerkinElmer Spectrum 1 FTIR spectrophotometer, and peaks were reported as ax (neat)/cm^−1, which refer to the […] wave numbers. Proton magnetic resonance spectra were recorded in CDCl3 with a Bruker AM 300 spectrometer (Rheinstetten-Forchheim, Germany) operating at 300 MHz, respectively. The ^13C NMR spectra were recorded in CDCl3 with a Bruker AM 100 spectrometer operating at 100 MHz. Tetramethylsilane was used as an internal standard. Elemental analyses for C, H, and N were recorded with the PerkinElmer 2400 Series II CHN Analyzer. Melting points were recorded on a GallenKamp apparatus and are uncorrected.
The enzyme assay is a modified form of the commonly known Berthelot assay. A total volume of 85 µL assay mixture contained 10 µL of phosphate buffer at pH 7.0 in each well of the 96-well plate, to which 10 µL of sample solution and 25 µL of enzyme solution (0.1347 units) were added. The contents were pre-incubated at 37 °C for 5 min. Then, 40 µL of urea stock solution (20 mM) was added to each well, and incubation continued at 37 °C for another 10 min. After the given time, 115 µL phenol hypochlorite reagent was added to each well (freshly prepared by mixing 45 µL phenol reagent with 70 µL of alkali reagent). For color development, incubation was performed at 37 °C for another 10 min. Absorbance was measured at 625 nm using the 96-well plate reader Synergy HT.

T1 sequence (P07374 whole entry, looked up): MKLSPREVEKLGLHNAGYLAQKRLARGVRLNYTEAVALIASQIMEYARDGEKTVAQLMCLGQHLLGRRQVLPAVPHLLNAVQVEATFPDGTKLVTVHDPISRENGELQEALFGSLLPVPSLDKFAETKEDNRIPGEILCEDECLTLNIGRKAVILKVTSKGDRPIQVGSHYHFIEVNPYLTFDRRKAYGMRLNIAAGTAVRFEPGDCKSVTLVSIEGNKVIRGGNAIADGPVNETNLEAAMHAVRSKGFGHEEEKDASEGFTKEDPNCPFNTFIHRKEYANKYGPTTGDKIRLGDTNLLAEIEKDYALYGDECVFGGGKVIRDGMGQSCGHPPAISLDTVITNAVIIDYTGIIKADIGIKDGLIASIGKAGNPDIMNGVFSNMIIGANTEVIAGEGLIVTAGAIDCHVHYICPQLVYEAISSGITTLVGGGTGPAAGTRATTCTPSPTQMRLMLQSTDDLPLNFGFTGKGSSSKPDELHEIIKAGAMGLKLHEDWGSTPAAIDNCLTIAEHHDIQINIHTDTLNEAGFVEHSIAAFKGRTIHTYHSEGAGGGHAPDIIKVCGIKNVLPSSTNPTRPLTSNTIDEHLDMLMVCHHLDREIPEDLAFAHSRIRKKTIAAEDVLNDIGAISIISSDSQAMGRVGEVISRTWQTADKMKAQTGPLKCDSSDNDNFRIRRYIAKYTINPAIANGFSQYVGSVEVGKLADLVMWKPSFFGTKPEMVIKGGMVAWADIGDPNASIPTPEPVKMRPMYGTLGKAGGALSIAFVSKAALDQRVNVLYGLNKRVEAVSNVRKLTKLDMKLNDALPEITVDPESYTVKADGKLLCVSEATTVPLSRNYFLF

As for `O=C(/C=C/c1ccc(-c2cccc(Cl)c2[N+](=O)[O-])o1)c1ccccc1` [Compound 4j], the IC50 was found to be 26 ± 2.25 µM and the inhibition at 100 µM came out at 68.24 ± 0.11%.

For `O=C(/C=C/c1ccc(-c2ccc([N+](=O)[O-])cc2Cl)o1)c1ccccc1` [Compound 4m], the half-maximal inhibitory concentration (IC50) worked out at 26.7 ± 0.65 µM and the inhibition at 100 µM was 63.1 ± 0.86%.

With `O=C(/C=C/c1ccc(-c2ccccc2Cl)o1)c1ccccc1` [Compound 4s, 1-phenyl-3-[5-(2′-chlorophenyl)-2-furyl]-2-propen-1-one], the IC50 stood at 18.7 ± 0.85 µM and the inhibition at 100 µM was 71.4 ± 1.77%.

As to `O=C(/C=C/c1ccc(-c2cc(Cl)cc(Cl)c2)o1)c1ccccc1` [Compound 4g], the “urease inhibition activity (in words)” value was “inactive” and the inhibition at 100 µM amounted to 39.7 ± 2.46%.

`O=C(O)c1ccc(-c2ccc(/C=C/C(=O)c3ccccc3)o2)cc1` [Compound 4e]: the IC50 came out at 25 ± 1.77 µM, the “urease inhibition activity (in words)” value was “inactive” and the inhibition at 100 µM stood at 65.5 ± 0.77%.

Consider `O=C(/C=C/c1ccc(-c2ccc(Cl)cc2)o1)c1ccccc1` [Compound 4b], for which the “urease inhibition activity (in words)” value was “inactive” and the inhibition at 100 µM was determined as 27.15 ± 0.17%.

As for `O=C(/C=C/c1ccc(-c2cc(Cl)ccc2Cl)o1)c1ccccc1` [Compound 4h, 1-phenyl-3-[5-(2′,5′-dichlorophenyl)-2-furyl]-2-propen-1-one], the IC50 stood at 16.1 ± 2.45 µM and the inhibition at 100 µM was 66.2 ± 1.36%.

As to `O=C(/C=C/c1ccc(-c2ccc(Cl)cc2Cl)o1)c1ccccc1` [Compound 4o], the IC50 is 34 ± 9.61 µM and the inhibition at 100 µM is 54.9 ± 1.98%.

On to `O=C(/C=C/c1ccc(-c2ccc(Br)cc2)o1)c1ccccc1` [Compound 4c], for which the “urease inhibition activity (in words)” value was “inactive” and the inhibition at 100 µM worked out at 39.41 ± 0.34%.

Consider `Cc1c(-c2ccc(/C=C/C(=O)c3ccccc3)o2)cccc1[N+](=O)[O-]` [Compound 4r], for which the “urease inhibition activity (in words)” value is “inactive” and the inhibition at 100 µM worked out at 12.6 ± 3.37%.

`O=C(/C=C/c1ccc(-c2cccc(Cl)c2)o1)c1ccccc1` [Compound 4k]: the IC50 is 23.1 ± 3.65 µM and the inhibition at 100 µM was found to be 69.52 ± 0.16%.

`O=C(/C=C/c1ccc(-c2cccc([N+](=O)[O-])c2)o1)c1ccccc1` [Compound 4d]: the “urease inhibition activity (in words)” value was “inactive” and the inhibition at 100 µM worked out at 46.5 ± 0.91%.

Take `O=C(/C=C/c1ccc(-c2ccc([N+](=O)[O-])cc2[N+](=O)[O-])o1)c1ccccc1` [Compound 4q]: the IC50 was found to be 44.4 ± 6.91 µM and the inhibition at 100 µM came to 54.7 ± 0.73%.

As for `O=C(/C=C/c1ccc(-c2ccccc2[N+](=O)[O-])o1)c1ccccc1` [Compound 4l], the IC50 was found to be 91.4 ± 6.25 µM and the inhibition at 100 µM was 51.47 ± 0.41%.

`O=C(/C=C/c1ccc(-c2ccc([N+](=O)[O-])cc2)o1)c1ccccc1` [Compound 4a]: the IC50 was 91.9 ± 2.24 µM and the inhibition at 100 µM came to 50.7 ± 0.62%.

Regarding `O=C(/C=C/c1ccc(-c2cc(Cl)ccc2[N+](=O)[O-])o1)c1ccccc1` [Compound 4i], the IC50 turned out to be 90.8 ± 8.99 µM and the inhibition at 100 µM turned out to be 51.7 ± 1.62%.

In the case of `O=C(O)c1cccc(-c2ccc(/C=C/C(=O)c3ccccc3)o2)c1` [Compound 4n], the IC50 worked out at 46.8 ± 5.44 µM and the inhibition at 100 µM came out at 62.3 ± 1.28%.

Take `Cc1cc(-c2ccc(/C=C/C(=O)c3ccccc3)o2)cc([N+](=O)[O-])c1` [Compound 4p]: the IC50 amounted to 52.6 ± 8.52 µM and the inhibition at 100 µM amounted to 57.4 ± 3.02%.

On to `O=C(/C=C/c1ccc(-c2ccc(Cl)c(Cl)c2)o1)c1ccccc1` [Compound 4f, 1-phenyl-3-[5-(3′,4′-dichlorophenyl) -2-furyl]-2-propen-1-one], for which the IC50 worked out at 21 ± 3.52 µM and the inhibition at 100 µM stood at 69.7 ± 1.86%.

(Values after publication PMC10525509, “Exploring the Synthetic Chemistry of Phenyl-3-(5-aryl-2-furyl)- 2-propen-1-ones as Urease Inhibitors: Mechanistic Approach through Urease Inhibition, Molecular Docking and Structure–Activity Relationship” (Biomedicines, 2023).)
